Test system: MOLM-14 cells
Test: EC50 experiments (MTS cell viability) on MOLM-14 cells sorted from xenografted mice
Assay type: cell-based
Details: Homo sapiens, MOLM-14, 168 h, after one week of in vitro culture
Procedure: The day before experiment, cells were adjusted to 3×10^5 cells/ml final concentration and plated in a 96-well plate (final volume: 100 μl). To measure half-maximal inhibitory concentration (EC50), increased concentrations of AraC or idarubicin were added to the medium. After two days, 20 μl per well of MTS solution (Promega) was added for two hours and then absorbance was recorded at 490 nm with a 96-well plate reader. The doses that decrease cell viability to 50% (EC50) were analyzed Nonlinear regression log [inhibitor] vs. normalized response-variable slope with GraphPad Prism software.
After 10 days, shRNA expression was activated and the mice were treated with 30 mg/kg/day cytarabine for 5 days (FIG. 2A). […] Also MOLM-14 expressing shCTR and treated by vehicle or AraC were sorted by flow cytometry, and plated in vitro for further experiments. […] To evaluate the role of CALCRL in this chemoresistance acquired in vivo, we undertook to deplete CALCRL in these cells.

[1] = MOLM-14 shCTR cells from AraC treated group mice
[2] = MOLM-14 shCTR cells from vehicle group mice

| EC50 [1] | EC50 [2] | Structure (SMILES) |
| --- | --- | --- |
| 6710 nM | 2240 nM | Nc1ccn([C@@H]2O[C@H](CO)[C@@H](O)[C@@H]2O)c(=O)n1 [AraC, cytarabine] |
| 60.5 nM | 28.6 nM | CC(=O)[C@]1(O)Cc2c(O)c3c(c(O)c2[C@@H](O[C@H]2C[C@H](N)[C@H](O)[C@H](C)O2)C1)C(=O)c1ccccc1C3=O [idarubicin] |

From patent publication US20220025058A1, “METHODS AND PHARMACEUTICAL COMPOSITIONS FOR THE TREATMENT OF ACUTE MYELOID LEUKEMIA BY ERADICATING LEUKEMIC STEM CELLS” (INSERM (INSTITUT NATIONAL DE LA SANTÉ ET DE LA RECHERCHE …, priority 2018, published 2022)
